Measured values published in US20250179059A1 (The Regents of the University of California, priority 2021, published 2025).

These compounds were tested against T1, human BRD4 bromodomain II (Homo sapiens, UniProt O60885) (assay: Bromodomain binding assay (AlphaScreen), BRD4 BDII). Conditions: AlphaScreen assay, Table C2; read-out: BRD4 BDII IC50.
T1 construct: human BRD4 bromodomain II [based on Genbank NM_058243, residues 349-460]; host or cells: E. coli
How it was run: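 Tagged BRD4 BDI or BDII constructs, expressed in E. coli, competed against a K5/K8/K12/K16-acetylated biotin-H4 peptide. Proximity signal between bead pairs after room-temperature incubations gave concentration-response curves, from which IC50 was derived.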

SMILES	IC50
CN1CCC12CCCN(c1cc(-c3cc(F)cc(-c4ccc(-n5ccn(C)c5=O)c(Cl)c4)c3O)ccn1)C2 (stereo not shown) [Example 693, 1-(3-chloro-5′-fluoro-2′-hydroxy-3′-(2-(1-methyl-1,6-diazaspiro[3.5]nonan-6-yl)pyridin-4-yl)-[1,1′-biphenyl]-4-yl)-3-methyl-1H-imidazol-2(3H)-one]	0.01 to 1 nM
Cn1ccn(-c2ccc(-c3cc(F)cc(-c4cc(N5CC[C@@H](N)C5)c5cn[nH]c5c4)c3O)cc2Cl)c1=O [Example 593, (R)-1-(3′-(4-(3-aminopyrrolidin-1-yl)-1H-indazol-6-yl)-3-chloro-5′-fluoro-2′-hydroxy-[1,1′-biphenyl]-4-yl)-3-methyl-1H-imidazol-2(3H)-one]	0.01 to 1 nM
CC(=O)N(C)c1ccc(-c2cccc(-c3cc(N4CCNCC4)no3)c2O)cc1 [Example 9, N-(2′-Hydroxy-3′-(3-(piperazin-1-yl)isoxazol-5-yl)-[1,1′-biphenyl]-4-yl)-N-methylacetamide]	> 100 nM
CC(=O)Nc1ccc(-c2cccc(-c3cc(N4CCNCC4)no3)c2O)cc1OC(C)C [Example 20, N-(2′-Hydroxy-3-isopropoxy-3′-(3-(piperazin-1-yl)isoxazol-5-yl)-[1,1′-biphenyl]-4-yl)acetamide]	10 to 100 nM
COc1cc(F)cc(-c2cccc(-c3ccc(NC(C)=O)c(F)c3)c2O)c1 [Example 146, N-(3,3″-difluoro-2′-hydroxy-5″-methoxy-[1,1′:3′,1″-terphenyl]-4-yl)acetamide]	> 100 nM
CC(=O)Nc1ccc(-c2cccc(-c3cc(N4CCNCC4)no3)c2O)cc1OC1CC1 [Example 44, N-(3-Cyclopropoxy-2′-hydroxy-3′-(3-(piperazin-1-yl)isoxazol-5-yl)-[1,1′-biphenyl]-4-yl)acetamide 2,2,2-trifluoroacetate]	10 to 100 nM

These compounds were tested on human SKM-1 acute myeloid leukemia cells (assay: SKM-1 antiproliferation cell-based assay (ATPlite)). Conditions: Homo sapiens, SKM-1, 96 h, SKM-1 antiproliferation assay, 4 days, Table C2.
Experimental: The cell-based assay indirectly measures cell density (and therefore proliferation and/or survival) by detecting total ATP concentration in a homogeneous format. Briefly, human SKM-1 acute myeloid leukemia cells (Leibniz Institute DSMZ #ACC 547) proliferating in log phase are collected by centrifugation, re-suspended in culture media (RPMI 1640/15% FBS/100 U/mL penicillin/100 μg/mL streptomycin) and diluted to 34722 cells/mL in media after counting. Then 180 μL cells are plated per well into a 96-well tissue-culture treated, clear bottom plate (Coming #3603). A 96-well compound plate (Corning #3357) is then generated by serial dilution of compounds into DMSO over nine concentrations and adding separate negative (DMSO) and positive control (reference compound) wells. Each compound concentration is tested in triplicate. First, 1 μL from each well of the compound plate is added to 99 μL culture media in an intermediate plate and mixed by pipetting. Then 20 μL of the diluted compounds in media are added to the assay plate containing the cells. The assay plate is maintained for 4 days in a standard cell culture incubator. At the end of the incubation period, 100 μL ATPlite Istep (PerkinElmer) is added to the assay plate wells, and the resulting luminescence is detected using an Infinite M1000 or a Spark multimode plate reader (Tecan). Data analysis is performed in Prism (GraphPad Software). For curve fitting, a non-linear regression, variable slope equation is used to calculate cellular IC50s.

SMILES	GI50
CN1CCC12CCCN(c1cc(-c3cc(F)cc(-c4ccc(-n5ccn(C)c5=O)c(Cl)c4)c3O)ccn1)C2 (stereo not shown) [Example 693, 1-(3-chloro-5′-fluoro-2′-hydroxy-3′-(2-(1-methyl-1,6-diazaspiro[3.5]nonan-6-yl)pyridin-4-yl)-[1,1′-biphenyl]-4-yl)-3-methyl-1H-imidazol-2(3H)-one]	0.3 to 30 nM
Cn1ccn(-c2ccc(-c3cc(F)cc(-c4cc(N5CC[C@@H](N)C5)c5cn[nH]c5c4)c3O)cc2Cl)c1=O [Example 593, (R)-1-(3′-(4-(3-aminopyrrolidin-1-yl)-1H-indazol-6-yl)-3-chloro-5′-fluoro-2′-hydroxy-[1,1′-biphenyl]-4-yl)-3-methyl-1H-imidazol-2(3H)-one]	0.3 to 30 nM

Same assay, conditions: Homo sapiens, SKM-1, SKM-1 antiproliferation assay

SMILES	GI50
Cn1ccn(-c2ccc(-c3cc(C=O)cc(-c4cccc(N5CCN(C(C)(C)C)CC5)c4)c3O)cc2Cl)c1=O [Example 1042, 3″-(4-(tert-Butyl)piperazin-1-yl)-3-chloro-2′-hydroxy-4-(3-methyl-2-oxo-2,3-dihydro-1H-imidazol-1-yl)-[1,1′:3′,1″-terphenyl]-5′-carbaldehyde]	300 to 3000 nM
Cn1ccn(-c2ccc(-c3cc(F)nc(-c4cnc(O)c(N5CCN(C(C)(C)C)CC5)c4)c3O)cc2Cl)c1=O [Example 1049, 1-(4-(5′-(4-(tert-butyl)piperazin-1-yl)-6-fluoro-3,6′-dihydroxy-[2,3′-bipyridin]-4-yl)-2-chlorophenyl)-3-methyl-1,3-dihydro-2H-imidazol-2-one]	30 to 300 nM
Cn1ccn(-c2ccc(-c3nc(F)cc(-c4cccc(N5CCN(C(C)(C)C)CC5)c4)c3N)cc2Cl)c1=O [Example 1057, 1-(4-(3-amino-4-(3-(4-(tert-butyl)piperazin-1-yl)phenyl)-6-fluoropyridin-2-yl)-2-chlorophenyl)-3-methyl-1,3-dihydro-2H-imidazol-2-one]	0.3 to 30 nM
CC1=CCN(c2ccc(-c3cc(C)nc(-c4cccc(N5CCN(C(C)(C)C)CC5)c4)c3O)cc2Cl)C1=O [Example 1055, 1-(4-(2-(3-(4-(tert-butyl)piperazin-1-yl)phenyl)-3-hydroxy-6-methylpyridin-4-yl)-2-chlorophenyl)-3-methyl-1,5-dihydro-2H-pyrrol-2-one]	0.3 to 30 nM
Cc1cc(-c2cc(F)nc(-c3cccc(N4CCN(C(C)(C)C)CC4)c3)c2O)ccc1-n1ccn(C)c1=O [Example 1050, 1-(4-(2-(3-(4-(tert-butyl)piperazin-1-yl)phenyl)-6-fluoro-3-hydroxypyridin-4-yl)-2-methylphenyl)-3-methyl-1,3-dihydro-2H-imidazol-2-one]	0.3 to 30 nM
COc1ncc(-c2nc(F)cc(-c3ccc(-n4ccn(C)c4=O)c(Cl)c3)c2O)cc1N1CCN(C(C)(C)C)CC1 [Example 1044, 1-(4-(5′-(4-(tert-Butyl)piperazin-1-yl)-6-fluoro-3-hydroxy-6′-methoxy-[2,3′-bipyridin]-4-yl)-2-chlorophenyl)-3-methyl-1H-imidazol-2(3H)-one]	0.3 to 30 nM
CCc1ncc(-c2nc(F)cc(-c3ccc(-n4ccn(C)c4=O)c(Cl)c3)c2O)cc1N1CCN(C(C)(C)C)CC1 [Example 1059, 1-(4-(5′-(4-(tert-butyl)piperazin-1-yl)-6′-ethyl-6-fluoro-3-hydroxy-[2,3′-bipyridin]-4-yl)-2-chlorophenyl)-3-methyl-1,3-dihydro-2H-imidazol-2-one]	0.3 to 30 nM
Cc1cc(-c2ccc(-n3ccn(C)c3=O)c(Cl)c2)c(O)c(-c2ccc(=O)n(C3CCN(C(C)C)CC3)c2)n1 [Example 1048, 4-(3-Chloro-4-(3-methyl-2-oxo-2,3-dihydro-1H-imidazol-1-yl)phenyl)-3-hydroxy-1′-(1-isopropylpiperidin-4-yl)-6-methyl-[2,3′-bipyridin]-6′(1′H)-one]	30 to 300 nM
Cn1ccn(-c2ccc(-c3cc(F)nc(-c4cccc(N5CCN(C(C)(C)C)CC5)c4)c3O)cc2F)c1=O [Example 1054, 1-(4-{2-[3-(4-tert-Butyl-piperazin-1-yl)-phenyl]-6-fluoro-3-hydroxy-pyridin-4-yl}-2-fluoro-phenyl)-3-methyl-1,3-dihydro-imidazol-2-one]	0.3 to 30 nM
CC(C)(C)N1CCN(c2cccc(-c3cc(F)cc(-c4ccc(N5CCCC5=O)c(Cl)c4)c3O)c2)CC1 [Example 1045, 1-(3″-(4-(tert-Butyl)piperazin-1-yl)-3-chloro-5′-fluoro-2′-hydroxy-[1,1′:3′,1″-terphenyl]-4-yl)pyrrolidin-2-one]	30 to 300 nM
CC(C)(C)N1CCN(c2cccc(-c3cc(F)cc(-c4ccc(-n5ccsc5=O)c(Cl)c4)c3O)c2)CC1 [Example 1052, 3-(3″-(4-(tert-butyl)piperazin-1-yl)-3-chloro-5′-fluoro-2′-hydroxy-[1,1′:3′,1″-terphenyl]-4-yl)thiazol-2(3H)-one]	0.3 to 30 nM
Cc1cc(-c2ccc(-n3ccsc3=O)c(Cl)c2)c(O)c(-c2cccc(N3CCN(C(C)(C)C)CC3)c2)n1 [Example 1053, 3-(4-(2-(3-(4-(tert-butyl)piperazin-1-yl)phenyl)-3-hydroxy-6-methylpyridin-4-yl)-2-chlorophenyl)thiazol-2(3H)-one]	0.3 to 30 nM
Cn1ccn(-c2ccc(-c3cc(F)nc(-c4cccc(N5CCN(C(C)(C)C)CC5)c4)c3N)cc2Cl)c1=O [Example 1056, 1-(4-(3-amino-2-(3-(4-(tert-butyl)piperazin-1-yl)phenyl)-6-fluoropyridin-4-yl)-2-chlorophenyl)-3-methyl-1,3-dihydro-2H-imidazol-2-one]	0.3 to 30 nM
Cc1cc(-c2ccc(N3CCCC3=O)c(Cl)c2)c(O)c(-c2cccc(N3CCN(C(C)(C)C)CC3)c2)n1 [Example 1041, 1-(4-(2-(3-(4-(tert-butyl)piperazin-1-yl)phenyl)-3-hydroxy-6-methylpyridin-4-yl)-2-chlorophenyl)pyrrolidin-2-one]	30 to 300 nM
[2H]C([2H])([2H])n1ccn(-c2ccc(-c3cc(F)nc(-c4cccc(N5CCN(C(C)(C)C)CC5)c4)c3O)cc2Cl)c1=O [Example 1047, 1-(4-(2-(3-(4-(tert-butyl)piperazin-1-yl)phenyl)-6-fluoro-3-hydroxypyridin-4-yl)-2-chlorophenyl)-3-(methyl-d3)-1,3-dihydro-2H-imidazol-2-one]	0.3 to 30 nM
Cc1ncc(-c2nc(F)cc(-c3ccc(-n4ccn(C)c4=O)c(Cl)c3)c2O)cc1N1CCN(C(C)(C)C)CC1 [Example 1043, 1-(4-(5′-(4-(tert-Butyl)piperazin-1-yl)-6-fluoro-3-hydroxy-6′-methyl-[2,3′-bipyridin]-4-yl)-2-chlorophenyl)-3-methyl-1H-imidazol-2(3H)-one]	30 to 300 nM
CC1=CCN(c2ccc(-c3cc(F)cc(-c4cccc(N5CCN(C(C)(C)C)CC5)c4)c3O)cc2Cl)C1=O [Example 1051, 1-(3″-(4-(tert-Butyl)piperazin-1-yl)-3-chloro-5′-fluoro-2′-hydroxy-[1,1′:3′,1″-terphenyl]-4-yl)-3-methyl-1,5-dihydro-2H-pyrrol-2-one]	0.3 to 30 nM
Cc1cc(-c2ccc(N3CCN(C)C3=O)c(Cl)c2)c(O)c(-c2cccc(N3CCN(C(C)(C)C)CC3)c2)n1 [Example 1046, 1-(4-(2-(3-(4-(tert-Butyl)piperazin-1-yl)phenyl)-3-hydroxy-6-methylpyridin-4-yl)-2-chlorophenyl)-3-methylimidazolidin-2-one]	0.3 to 30 nM
Cn1ccn(-c2ccc(-c3cc(F)cc(-c4cccc(N5CCN(C(C)(C)C)CC5)c4)c3N)cc2Cl)c1=O [Example 1058, 1-[2′-Amino-3-(4-tert-butyl-piperazin-1-yl)-3″-chloro-5′-fluoro-[1,1′;3′,1″ ]terphenyl-4″-yl]-3-methyl-1,3-dihydro-imidazol-2-one]	0.3 to 30 nM

Same assay, conditions: SKM-1 antiproliferation assay

SMILES	GI50
Cc1ncc(-c2cc(F)cc(-c3ccc(-n4ccn(C)c4=O)c(Cl)c3)c2O)cc1N1CC2(CC2)[C@](C)(O)C1 [Example 874]	0.3 to 30 nM
